Among the data in patent US10179790B2 (THOMAS HELLEDAYS STIFTELSE FOR MEDICINSK FORSKNING, priority 2014, dated 2019) are IC50 values, retold here.

The target in the assay is MTH1 (Homo sapiens, UniProt P36639). Briefly: MTH1 enzymatic assay and IC50 value determination (malachite green, 96- and 384-well format). It counts as biochemical. The note with it: hydrolysis of dGTP (100 μM), MTH1 6 nM, pyrophosphatase-coupled malachite green, 15 minutes at 22° C. As for the experimental part: MTH1 Enzymatic Assay and IC50 Value Determination
MTH1 catalyzes the hydrolysis of dGTP to dGMP and PPi. By coupling the reaction to pyrophosphatase added in excess PPi is converted to Pi that can be detected by using the malachite green assay reagent. Two different formats were used for IC50 determinations in the enzymatic assay, 96- and 384-well format. 96-Well Method:
Briefly, the compound to be analyzed is diluted in DMSO in a 1:3 dilution series generating 12 different compound concentrations giving a final DMSO concentration of 1% in the assay well. MTH1 diluted in assay buffer (100 mM Tris-acetate, 40 mM NaCl, 10 mM magnesium acetate, 1 mM DTT and 0.005% Tween 20) fortified with E. coli pyrophosphatase (0.2 U/ml) is added to a final concentration of 6 nM. dGTP diluted in assay buffer is added to a final concentration of 100 μM. The reaction mixture is incubated for 15 minutes at 22° C. To 100 μl reaction mixture, 25 μl Malachite green assay regent (0.095% Malachite green in 17% H2SO4, 1.5% Ammonium molybdate, 0.17% Tween 20) is added, followed by incubation with shaking for 15 minutes at 22° C. The absorbance of the assay plate is read at 630 nm using a Hidex Sense Multilabel plate reader. The IC50 value is determined by fitting a dose response curve to the data points using nonlinear regression analysis and the equation Y=Bottom+(Top−Bottom)/(1+10^((Log IC50−X)*HillSlope)), where Y is the read absorbance at 630 nm and X is log [compound].
The compounds to be tested are nano-dispensed, in 11 concentrations, directly in assay plates, with a final DMSO concentration <1%. The protocol and the reaction mixture are the same as for the 96-well assay, with a total reaction volume of 50 μl/well to which 10 μl of Malachite green reagent is added. All additions to the assay plates are made with multidrop.
With `Cc1c(Cl)cccc1-c1cc(NCCNc2ccc(NC(=O)NC(C)(C)C)cn2)nc(N)n1` [Example 156, 1-[6-[2-[[2-amino-6-(3-chloro-2-methyl-phenyl)pyrimidin-4-yl]amino]ethylamino]-3-pyridyl]-3-tert-butyl-urea], the 50% inhibitory concentration (IC50) – broadly, the concentration that gives 50% inhibition – is less than 200 nM.
Next, `Cc1cccc(-c2cc(NCCc3ccc(C(=O)O)cc3)nc(N)n2)c1C` [Example 34, 4-(2-{[2-amino-6-(2,3-dimethylphenyl)pyrimidin-4-yl]amino}ethyl)benzoic acid]: less than 200 nM; `Cc1ccc(F)cc1-c1cc(NCCc2ccc(S(N)(=O)=O)cc2)nc(N)n1` [Example 71, 4-(2-{[2-amino-6-(5-fluoro-2-methylphenyl)pyrimidin-4-yl]amino}ethyl)benzene-1-sulfonamide]: less than 200 nM.
As for `CC(=O)c1sccc1-c1cc(NCCc2ccc(S(N)(=O)=O)cc2)nc(N)n1` [Example 10, 4-(2-{[6-(2-acetylthiophen-3-yl)-2-aminopyrimidin-4-yl]amino}ethyl)benzene-1-sulfonamide], the figure is less than 200 nM.
Next, `Cc1c(Cl)cccc1-c1cc(NCCn2c([N+](=O)[O-])cnc2C)nc(N)n1` [Example 100, 6-(3-chloro-2-methyl-phenyl)-N4-[2-(2-methyl-5-nitro-imidazol-1-yl)ethyl]pyrimidine-2,4-diamine]: less than 200 nM.
As to `Cc1ccc(C(=O)N2CC=C(c3cc(NCCc4ccc(S(N)(=O)=O)cc4)nc(N)n3)CC2)cc1` [Example 141, 4-[2-({2-amino-6-[1-(4-methylbenzoyl)-1,2,3,6-tetrahydropyridin-4-yl]pyrimidin-4-yl}amino)ethyl]benzene-1-sulfonamide], the IC50 is less than 200 nM.
As for `Nc1nc(NCCc2ccc(S(N)(=O)=O)cc2)cc(-c2ccc(Cl)c(Cl)c2Cl)n1` [Example 98, 4-[2-[[2-amino-6-(2,3,4-trichlorophenyl)pyrimidin-4-yl]amino]ethyl]benzenesulfonamide], the figure is less than 200 nM; as for `Cc1cc(-c2cc(NCCNc3ccc([N+](=O)[O-])cn3)nc(N)n2)c(C)cc1F` [Example 8, 6-(4-fluoro-2,5-dimethylphenyl)-4-N-{2-[(5-nitropyridin-2-yl)amino]ethyl}pyrimidine-2,4-diamine], less than 200 nM.
As for `Cc1cc(Cl)c(Cl)cc1-c1cc(NCCc2ccc(S(N)(=O)=O)cc2)nc(N)n1` [Example 67, 4-(2-{[2-amino-6-(4,5-dichloro-2-methylphenyl)pyrimidin-4-yl]amino}ethyl)benzene-1-sulfonamide], the figure is less than 200 nM; as for `Cc1c(Cl)cccc1-c1cc(NCC#CCSc2cccc(C(=O)O)c2)nc(N)n1` [Example 193], less than 200 nM; as for `CSc1ccc(NC(=O)NCCCCNc2cc(-c3cccc(Cl)c3Cl)nc(N)n2)cc1` [Example 6, 3-(4-{[2-amino-6-(2,3-dichlorophenyl)pyrimidin-4-yl]amino}butyl)-1-[4-(methylsulfanyl)phenyl]urea], less than 200 nM.
`Cc1c(Cl)cccc1-c1cc(NCCc2cccc(NC(=N)N)c2)nc(N)n1` [Example 179, 1-[3-[2-[[2-amino-6-(3-chloro-2-methyl-phenyl)pyrimidin-4-yl]amino]ethyl]phenyl]guanidine] registered a half-inhibitory concentration (IC50) of less than 200 nM.
As for `Nc1nc(NCCc2ccc(S(N)(=O)=O)cc2)cc(C2=CCCCCC2)n1` [Example 132, 4-(2-{[2-amino-6-(cyclohept-1-en-1-yl)pyrimidin-4-yl]amino}ethyl)benzene-1-sulfonamide], the figure is less than 200 nM; as for `CN1C(=O)COc2ccc(NCCNc3cc(-c4cccc(Cl)c4Cl)nc(N)n3)cc21` [Example 94, 6-[2-[[2-amino-6-(2,3-dichlorophenyl)pyrimidin-4-yl]amino]ethylamino]-4-methyl-1,4-benzoxazin-3-one], less than 200 nM.
Next, `Nc1nc(NCCc2ccc(S(N)(=O)=O)cc2)cc(-c2cccc(OS(=O)(=O)C(F)(F)F)c2)n1` [Example 33, 3-(2-amino-6-{[2-(4-sulfamoylphenyl)ethyl]amino}pyrimidin-4-yl)phenyl trifluoromethanesulfonate]: less than 200 nM; `Cc1c(Cl)cccc1-c1cc(NCCc2ccc(C(N)=O)cc2F)nc(N)n1` [Example 162, 4-[2-[[2-amino-6-(3-chloro-2-methyl-phenyl)pyrimidin-4-yl]amino]ethyl]-3-fluoro-benzamide]: less than 200 nM.
As for `Cc1c(Cl)cccc1-c1cc(NCCNc2ccc(NC(=O)OC(C)(C)C)cn2)nc(N)n1` [Example 157, tert-butyl N-[6-[2-[[2-amino-6-(3-chloro-2-methyl-phenyl)pyrimidin-4-yl]amino]ethylamino]-3-pyridyl]carbamate], the figure is less than 200 nM; as for `Nc1nc(NCCc2ccc(S(N)(=O)=O)cc2)cc(C2=CCN(C(=O)c3ccno3)CC2)n1` [Example 138, 4-[2-({2-amino-6-[1-(1,2-oxazole-5-carbonyl)-1,2,3,6-tetrahydropyridin-4-yl]pyrimidin-4-yl}amino)ethyl]benzene-1-sulfonamide], less than 200 nM; as for `Cc1c(Cl)cccc1-c1cc(NCCNc2ccc(C(N)=O)cn2)nc(N)n1` [Example 147], less than 200 nM.
`Cc1c(Cl)cccc1-c1cc(NCCc2ccc(C(=N)N)cc2)nc(N)n1` [Example 125, 4-[2-[[2-amino-6-(3-chloro-2-methyl-phenyl)pyrimidin-4-yl]amino]ethyl]benzamidine]: the IC50 was less than 200 nM.
Next, `Cc1c(Cl)cccc1-c1cc(NCC(O)c2ccc(S(N)(=O)=O)cc2)nc(N)n1` (stereo not shown) [Example 216, 4-(2-(2-Amino-6-(3-chloro-2-methylphenyl)pyrimidin-4-ylamino)-1-hydroxyethyl)benzenesulfonamide]: less than 200 nM; `Nc1nc(NCCc2ccc(S(N)(=O)=O)cc2)cc(C2=CCN(C(=O)CC3CCCC3)CC2)n1` [Example 140, 4-[2-({2-amino-6-[1-(2-cyclopentylacetyl)-1,2,3,6-tetrahydropyridin-4-yl]pyrimidin-4-yl}amino)ethyl]benzene-1-sulfonamide]: less than 200 nM; `Cc1c(Cl)cccc1-c1cc(NCCSCc2ccc(CN(C)C)o2)nc(N)n1` [Example 175, 6-(3-chloro-2-methyl-phenyl)-N4-[2-[[5-[(dimethylamino)methyl]-2-furyl]methylsulfanyl]ethyl]pyrimidine-2,4-diamine]: less than 200 nM.
For `Cc1c(Cl)cccc1-c1cc(NCCNc2nc(N)nc(N)n2)nc(N)n1` [Example 158, N2-[2-[[2-amino-6-(3-chloro-2-methyl-phenyl)pyrimidin-4-yl]amino]ethyl]-1,3,5-triazine-2,4,6-triamine], the IC50 was less than 200 nM.
In turn, `Cc1ccc(-c2cc(NCCc3ccc(S(N)(=O)=O)cc3)nc(N)n2)o1` [Example 4, 4-(2-{[2-amino-6-(5-methylfuran-2-yl)pyrimidin-4-yl]amino}ethyl)benzene-1-sulfonamide] gave an IC50 of less than 200 nM.
Next, `Cc1c(Cl)cccc1-c1cc(NCCOc2ccc(C(F)(F)F)cn2)nc(N)n1` [Example 199, 6-(3-chloro-2-methylphenyl)-N4-(2-{[5-(trifluoromethyl)pyridin-2-yl]oxy}ethyl)pyrimidine-2,4-diamine]: less than 200 nM; `Cc1c(Cl)cccc1-c1cc(N[C@H]2C[C@@H]2c2ccc(S(N)(=O)=O)cc2)nc(N)n1` [Example 15, 4-[(1R,2S)-2-{[2-amino-6-(3-chloro-2-methylphenyl)pyrimidin-4-yl]amino}cyclopropyl]benzene-1-sulfonamide]: less than 200 nM.
Regarding `Cc1ccc(S(=O)(=O)N2CC=C(c3cc(NCCc4ccc(S(C)(=O)=O)cc4)nc(N)n3)CC2)cc1` [Example 130, 4-N-[2-(4-methanesulfonylphenyl)ethyl]-6-[1-(4-methylbenzenesulfonyl)-1,2,3,6-tetrahydropyridin-4-yl]pyrimidine-2,4-diamine], the 50% inhibitory concentration (IC50) was less than 200 nM.
As for `CC(C)(C)OC(=O)N1CC=C(c2cc(NCCc3ccc(S(N)(=O)=O)cc3)nc(N)n2)CC1` [Example 131, tert-butyl 4-(2-amino-6-{[2-(4-sulfamoylphenyl)ethyl]amino}pyrimidin-4-yl)-1,2,3,6-tetrahydropyridine-1-carboxylate], the figure is less than 200 nM; as for `CC(C)(C)OC(=O)NCc1ccc(-c2cc(NCCc3ccc(S(C)(=O)=O)cc3)nc(N)n2)s1` [Example 18, tert-butyl N-{[5-(2-amino-6-{[2-(4-methanesulfonylphenyl)ethyl]amino}pyrimidin-4-yl)thiophen-2-yl]methyl}carbamate], less than 200 nM; as for `Nc1nc(NCCNc2ccc3c(c2)NC(=O)CO3)cc(-c2cccc(Cl)c2)n1` [Example 37, 6-[(2-{[2-amino-6-(3-chlorophenyl)pyrimidin-4-yl]amino}ethyl)amino]-3,4-dihydro-2H-1,4-benzoxazin-3-one], less than 200 nM.
